{"source": "PubChem BioAssay AID248", "about": "(DTP/NCI, 2004)", "system": "L1210 leukemia ip in BDF1 mice, survival T/C", "experiment": "NCI In Vivo Anticancer Drug Screen. Data for tumor model L1210 Leukemia (intraperitoneal) in B6D2F1 (BDF1) mice", "conditions": "endpoint: mean survival time, higher = longer survival", "in_short": "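Tumor was transplanted into mice, which were then dosed with test compound or vehicle alone. Survival was recorded for each group, and the treated figure was expressed relative to the control figure.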", "note": "Values joined by “and” are separate entries in the source; they are usually repeats but may differ in a detail not shown here. Equal values may be shown once. Toxic doses and inconclusive results are not listed."}
{"smiles": "O=C(Nc1ccc(C2=NCCN2)cc1)c1ccc(C(=O)Nc2ccc(C3=NCCN3)cc2)c(NC(=O)c2ccc(C(=O)Nc3cc(C(=O)Nc4ccc(C5=NCCN5)cc4)ccc3C(=O)Nc3ccc(C4=NCCN4)cc3)cc2)c1", "values": [{"measurement": "T/C", "setting": "dose: 2.5 mg/kg/injection, schedule: Q01DX Z (ip), vehicle: methylcellulose (MC)", "value": "120 % of control"}, {"measurement": "T/C", "setting": "dose: 3.1 mg/kg/injection, schedule: Q01DX Z (ip), vehicle: carboxymethylcellulose (CMC)", "value": "104 % of control"}, {"measurement": "T/C", "setting": "dose: 6.2 mg/kg/injection, schedule: Q01DX Z (ip), vehicle: carboxymethylcellulose (CMC)", "value": "107 % of control"}, {"measurement": "T/C", "setting": "dose: 6.25 mg/kg/injection, schedule: Q#A X Z (ip), vehicle: carboxymethylcellulose (CMC)", "value": "108 % of control"}, {"measurement": "T/C", "setting": "dose: 10.0 mg/kg/injection, schedule: Q01DX Z (ip), vehicle: methylcellulose (MC)", "value": "157 % of control"}, {"measurement": "T/C", "setting": "dose: 12.5 mg/kg/injection, schedule: Q01DX Z (ip), vehicle: carboxymethylcellulose (CMC)", "value": "119 % of control"}, {"measurement": "T/C", "setting": "dose: 12.5 mg/kg/injection, schedule: Q01DX Z (sc), vehicle: carboxymethylcellulose (CMC)", "value": "98 % of control"}, {"measurement": "T/C", "setting": "dose: 12.5 mg/kg/injection, schedule: Q#A X Z (ip), vehicle: carboxymethylcellulose (CMC)", "value": "192 % of control"}, {"measurement": "T/C", "setting": "dose: 22.0 mg/kg/injection, schedule: Q01DX015 (ip), vehicle: carboxymethylcellulose (CMC)", "value": "116 % of control"}, {"measurement": "T/C", "setting": "dose: 25.0 mg/kg/injection, schedule: Q01DX004 (im), vehicle: olive oil, sesame oil, peanut oil", "value": "97 % of control"}, {"measurement": "T/C", "setting": "dose: 25.0 mg/kg/injection, schedule: Q01DX Z (ip), vehicle: carboxymethylcellulose (CMC)", "value": "175 % of control"}, {"measurement": "T/C", "setting": "dose: 25.0 mg/kg/injection, schedule: Q01DX Z (sc), vehicle: carboxymethylcellulose (CMC)", "value": "122 % of control"}, {"measurement": "T/C", "setting": "dose: 25.0 mg/kg/injection, schedule: Q#A X Z (ip), vehicle: carboxymethylcellulose (CMC)", "value": "289 % of control"}, {"measurement": "T/C", "setting": "dose: 33.0 mg/kg/injection, schedule: Q01DX015 (ip), vehicle: carboxymethylcellulose (CMC)", "value": "106 % of control"}, {"measurement": "T/C", "setting": "dose: 50.0 mg/kg/injection, schedule: Q01DX004 (im), vehicle: olive oil, sesame oil, peanut oil", "value": "95 % of control"}, {"measurement": "T/C", "setting": "dose: 50.0 mg/kg/injection, schedule: Q01DX015 (ip), vehicle: carboxymethylcellulose (CMC)", "value": "110 % of control"}, {"measurement": "T/C", "setting": "dose: 50.0 mg/kg/injection, schedule: Q01DX Z (ip), vehicle: carboxymethylcellulose (CMC)", "value": "302 % of control"}, {"measurement": "T/C", "setting": "dose: 50.0 mg/kg/injection, schedule: Q01DX Z (oral), vehicle: carboxymethylcellulose (CMC)", "value": "95 % of control"}, {"measurement": "T/C", "setting": "dose: 50.0 mg/kg/injection, schedule: Q01DX Z (sc), vehicle: carboxymethylcellulose (CMC)", "value": "201 % of control"}, {"measurement": "T/C", "setting": "dose: 50.0 mg/kg/injection, schedule: Q#A X Z (ip), vehicle: carboxymethylcellulose (CMC)", "value": "194 % of control"}, {"measurement": "T/C", "setting": "dose: 60.0 mg/kg/injection, schedule: Q01DX Z (ip), vehicle: methylcellulose (MC)", "value": "158 % of control and 359 % of control"}, {"measurement": "T/C", "setting": "dose: 62.5 mg/kg/injection, schedule: Q## X010 (oral), vehicle: saline", "value": "98 % of control"}, {"measurement": "T/C", "setting": "dose: 75.0 mg/kg/injection, schedule: Q03DX Z (ip), vehicle: carboxymethylcellulose (CMC)", "value": "206 % of control"}, {"measurement": "T/C", "setting": "dose: 100.0 mg/kg/injection, schedule: Q01DX004 (im), vehicle: olive oil, sesame oil, peanut oil", "value": "95 % of control"}, {"measurement": "T/C", "setting": "dose: 100.0 mg/kg/injection, schedule: Q01DX Z (ip), vehicle: carboxymethylcellulose (CMC)", "value": "195 % of control"}, {"measurement": "T/C", "setting": "dose: 100.0 mg/kg/injection, schedule: Q01DX Z (oral), vehicle: carboxymethylcellulose (CMC)", "value": "93 % of control"}, {"measurement": "T/C", "setting": "dose: 100.0 mg/kg/injection, schedule: Q01DX Z (sc), vehicle: carboxymethylcellulose (CMC)", "value": "208 % of control"}, {"measurement": "T/C", "setting": "dose: 112.5 mg/kg/injection, schedule: Q01DX015 (ip), vehicle: carboxymethylcellulose (CMC)", "value": "169 % of control"}, {"measurement": "T/C", "setting": "dose: 120.0 mg/kg/injection, schedule: Q01DX Z (ip), vehicle: methylcellulose (MC)", "value": "314 % of control"}, {"measurement": "T/C", "setting": "dose: 150.0 mg/kg/injection, schedule: Q03DX Z (ip), vehicle: carboxymethylcellulose (CMC)", "value": "284 % of control"}, {"measurement": "T/C", "setting": "dose: 175.0 mg/kg/injection, schedule: Q07DX Z (ip), vehicle: carboxymethylcellulose (CMC)", "value": "293 % of control"}, {"measurement": "T/C", "setting": "dose: 192.0 mg/kg/injection, schedule: Q01DX001 (ip), vehicle: carboxymethylcellulose (CMC)", "value": "97 % of control"}, {"measurement": "T/C", "setting": "dose: 192.0 mg/kg/injection, schedule: Q01DX001 (ip), vehicle: other", "value": "100 % of control"}, {"measurement": "T/C", "setting": "dose: 200.0 mg/kg/injection, schedule: Q01DX004 (im), vehicle: olive oil, sesame oil, peanut oil", "value": "98 % of control"}, {"measurement": "T/C", "setting": "dose: 200.0 mg/kg/injection, schedule: Q01DX Z (oral), vehicle: carboxymethylcellulose (CMC)", "value": "97 % of control"}, {"measurement": "T/C", "setting": "dose: 200.0 mg/kg/injection, schedule: Q01DX Z (sc), vehicle: carboxymethylcellulose (CMC)", "value": "227 % of control"}, {"measurement": "T/C", "setting": "dose: 240.0 mg/kg/injection, schedule: Q01DX Z (ip), vehicle: methylcellulose (MC)", "value": "210 % of control"}, {"measurement": "T/C", "setting": "dose: 250.0 mg/kg/injection, schedule: Q## X010 (oral), vehicle: saline", "value": "101 % of control"}, {"measurement": "T/C", "setting": "dose: 281.0 mg/kg/injection, schedule: Q01DX001 (ip), vehicle: carboxymethylcellulose (CMC)", "value": "97 % of control"}, {"measurement": "T/C", "setting": "dose: 281.0 mg/kg/injection, schedule: Q01DX001 (ip), vehicle: other", "value": "103 % of control"}, {"measurement": "T/C", "setting": "dose: 300.0 mg/kg/injection, schedule: Q03DX Z (ip), vehicle: carboxymethylcellulose (CMC)", "value": "190 % of control"}, {"measurement": "T/C", "setting": "dose: 350.0 mg/kg/injection, schedule: Q07DX Z (ip), vehicle: carboxymethylcellulose (CMC)", "value": "278 % of control"}, {"measurement": "T/C", "setting": "dose: 400.0 mg/kg/injection, schedule: Q01DX Z (oral), vehicle: carboxymethylcellulose (CMC)", "value": "104 % of control"}, {"measurement": "T/C", "setting": "dose: 422.0 mg/kg/injection, schedule: Q01DX001 (ip), vehicle: carboxymethylcellulose (CMC)", "value": "95 % of control"}, {"measurement": "T/C", "setting": "dose: 422.0 mg/kg/injection, schedule: Q01DX001 (ip), vehicle: other", "value": "106 % of control"}, {"measurement": "T/C", "setting": "dose: 500.0 mg/kg/injection, schedule: Q## X010 (oral), vehicle: saline", "value": "104 % of control"}, {"measurement": "T/C", "setting": "dose: 640.0 mg/kg/injection, schedule: Q01DX001 (ip), vehicle: carboxymethylcellulose (CMC)", "value": "104 % of control"}, {"measurement": "T/C", "setting": "dose: 640.0 mg/kg/injection, schedule: Q01DX001 (ip), vehicle: other", "value": "104 % of control"}, {"measurement": "T/C", "setting": "dose: 700.0 mg/kg/injection, schedule: Q07DX Z (ip), vehicle: carboxymethylcellulose (CMC)", "value": "185 % of control"}, {"measurement": "T/C", "setting": "dose: 800.0 mg/kg/injection, schedule: Q01DX Z (oral), vehicle: carboxymethylcellulose (CMC)", "value": "89 % of control"}, {"measurement": "T/C", "setting": "dose: 960.0 mg/kg/injection, schedule: Q01DX001 (ip), vehicle: carboxymethylcellulose (CMC)", "value": "106 % of control and 120 % of control"}, {"measurement": "T/C", "setting": "dose: 1440.0 mg/kg/injection, schedule: Q01DX001 (ip), vehicle: carboxymethylcellulose (CMC)", "value": "116 % of control"}, {"measurement": "T/C", "setting": "dose: 1440.0 mg/kg/injection, schedule: Q01DX001 (ip), vehicle: other", "value": "120 % of control"}, {"measurement": "T/C", "setting": "dose: 2160.0 mg/kg/injection, schedule: Q01DX001 (ip), vehicle: carboxymethylcellulose (CMC)", "value": "121 % of control"}, {"measurement": "T/C", "setting": "dose: 3240.0 mg/kg/injection, schedule: Q01DX001 (ip), vehicle: carboxymethylcellulose (CMC)", "value": "123 % of control"}, {"measurement": "T/C", "setting": "dose: 3240.0 mg/kg/injection, schedule: Q01DX001 (ip), vehicle: other", "value": "191 % of control"}]}
{"smiles": "C=CC(C)CCCC(C)C", "note": "(stereo unspecified)", "values": [{"measurement": "T/C", "setting": "dose: 100.0 mg/kg/injection, schedule: Q04DX003 (ip), vehicle: saline", "value": "91 % of control"}, {"measurement": "T/C", "setting": "dose: 200.0 mg/kg/injection, schedule: Q04DX003 (ip), vehicle: saline", "value": "97 % of control"}, {"measurement": "T/C", "setting": "dose: 400.0 mg/kg/injection, schedule: Q04DX003 (ip), vehicle: saline", "value": "91 % of control"}]}
{"smiles": "O=C(Nc1ccccc1)Nc1ccc(C(=O)c2ccccc2)cc1", "values": [{"measurement": "T/C", "setting": "dose: 20.0 mg/kg/injection, schedule: Q01DX005 (ip), vehicle: saline with Tween-80", "value": "100 % of control"}, {"measurement": "T/C", "setting": "dose: 40.0 mg/kg/injection, schedule: Q01DX005 (ip), vehicle: saline with Tween-80", "value": "89 % of control"}, {"measurement": "T/C", "setting": "dose: 80.0 mg/kg/injection, schedule: Q01DX005 (ip), vehicle: saline with Tween-80", "value": "97 % of control"}, {"measurement": "T/C", "setting": "dose: 160.0 mg/kg/injection, schedule: Q01DX005 (ip), vehicle: saline with Tween-80", "value": "90 % of control"}, {"measurement": "T/C", "setting": "dose: 320.0 mg/kg/injection, schedule: Q01DX005 (ip), vehicle: saline with Tween-80", "value": "95 % of control"}]}
{"smiles": "O=C(Sc1ccc([N+](=O)[O-])cc1)C(=O)Sc1ccc([N+](=O)[O-])cc1", "values": [{"measurement": "T/C", "setting": "dose: 100.0 mg/kg/injection, schedule: Q01DX009 (ip), vehicle: saline with Tween-80", "value": "87 % of control"}, {"measurement": "T/C", "setting": "dose: 200.0 mg/kg/injection, schedule: Q01DX009 (ip), vehicle: saline with Tween-80", "value": "97 % of control"}]}
